pIC50: −log10 of the molar value. Converted amounts (≈) assume the structure as drawn. “And” between values parts separate entries of the source, which are not always exact repeats. Equal values may be shown once.
Assays:
E. faecalis ATCC-29212 = experiment: MIC testing (broth microdilution, EUCAST); type: cell-based; conditions: Enterococcus faecalis, ATCC29212, E. faecalis ATCC-29212
Procedure: (§1) Minimal inhibitory concentration (MIC) of the compounds in the present invention was determined using broth microdilution performed according to EUCAST guidelines (ISO20776-1:2019). S. aureus ATCC29213 and E. faecalis ATCC29212 served as quality control strains.

[1] = system: E. faecium DSM-17050 (vancomycin-resistant, VRE); experiment: MIC testing (broth microdilution, EUCAST); type: cell-based; conditions: Enterococcus faecium
Procedure: as §1

E. faecium DSM-20477 = experiment: MIC testing (broth microdilution, EUCAST); type: cell-based; conditions: Enterococcus faecium, DSM20477, E. faecium DSM-20477
Procedure: as §1

[2] = system: S. aureus N315 (methicillin-resistant, MRSA); experiment: MIC testing (broth microdilution, EUCAST); type: cell-based; conditions: Staphylococcus aureus, MRSA
Procedure: as §1

S. aureus Newman = experiment: MIC testing (broth microdilution, EUCAST); type: cell-based
Procedure: as §1

S. epidermidis DSM-28765 = experiment: MIC testing (broth microdilution, EUCAST); type: cell-based; conditions: Staphylococcus epidermidis, DSM28765, S. epidermidis DSM-28765; read-out: MIC S. epiderm.
Procedure: as §1

zebrafish larvae = experiment: Toxicity in zebrafish larvae (MTC / IC50); type: in vivo
Procedure: For toxicity screening, zebrafish larvae were exposed three days post fertilization and monitored for 48 h until five days post fertilization. All malformations and pathophysiological phenotypes were noted and used to determine the inhibitory concentration (IC50) of the respective derivative against zebrafish larvae. The selectivity index (SI) was then calculated using the IC50 and the MIC of either S. aureus or P. falciparum 3D7.

Inhibition of CYP3A4 = type: in vitro ADME; conditions: cyp3a4
Procedure: (§2) Complementing the toxicity profiling, ADME properties of the lead dehalogenil were determined. This had not been possible for the first generation frontrunner ChB1-Epo2 or the natural product ChA because of their poor limit of detection. […] Across species (mouse, rat, human), metabolic stability is high while plasma stability is moderate. Besides, no hemolysis and no inhibition of the metabolically important enzyme CYP3A4 was observed by both dehalogenil and ChA. Plasma protein binding (PPB) is >99.4% in all species.

CYP3A4 = experiment: Inhibition of CYP3A4; type: in vitro ADME
Procedure: as §2

[3] = In vivo PK after subcutaneous application (50% ClearSol/PBS pH 7.4); parameters: species or system mouse; conditions: for Cz / tz / AUC(0-t) / Cmax / Tmax: n = 3; for AUC(0-t) / Cmax / Tmax: mouse, in vivo
Procedure: Dehalogenil was further applied subcutaneously at 5, 10 and 25 mg/kg in 50% ClearSol™/PBS pH 7.4.

S. aureus = experiment: Murine foreign body (catheter) infection model; type: in vivo, mouse
Procedure: In a murine model, infected catheter tubings were implanted under the rodent skin followed by subcutaneous treatment (once per day with 25 mg/kg for six days).
The infection was established using a bacterial inoculum of 1×10^4 colony-forming units (CFU) injected into the lumen of the implanted peripheral venous catheter tubing fragment. Dehalogenil (25 mg/kg) was administered s.c. once per day, starting at 3 h post infection. Linezolid (Zyvoxid, Pfizer) was used as a reference antibiotic. Six days post infection, mice were euthanized, edema sizes around the implanted catheter fragment determined (c), and the catheter fragments and surrounding tissues were explanted. Bacterial loads from catheter detached biofilms (a) and in surrounding tissue homogenates (b) were determined by CFU counting. The data represent the value of every individual animal (symbols) and the median (horizontal lines). […], **p<0.01, ***p<0.001 (Kruskal-Wallis tests followed by Dunn's post hoc test).

[4] = 25 mg/kg SC once per day, six days

CC1=CC(C)C2C(C=CC3C(C)C=CC=CC(C)OC(=O)C(C)C(=O)CC(=O)C32)C1 (centres unmarked) [dehalogenil]
MIC (E. faecalis ATCC-29212): 0.1 mg/L (≈ 0.244 µM) | MIC [1]: 0.1 mg/L (≈ 0.244 µM) | MIC (E. faecium DSM-20477): 0.025 mg/L (≈ 0.0609 µM) | MIC [2]: 0.05 mg/L (≈ 0.122 µM) | MIC S. aureus (S. aureus Newman): 0.05 mg/L (≈ 0.122 µM) | MIC (S. epidermidis DSM-28765): 0.2 mg/L (≈ 0.487 µM) | toxic effects in zebrafish (zebrafish larvae; 5-10 μg/mL): no toxic effects | IC50 in zebrafish larvae (zebrafish larvae; exposed 3 days post fertilization, monitored 48 h): 27.4 µM | Selectivity Index S. aureus (zebrafish larvae; zebrafish IC50 / MIC S. aureus Newman): 224.8 | Selectivity Index P. falc 3D7 (zebrafish larvae; zebrafish IC50 vs P. falciparum 3D7): 5479.6 | pIC50 (Inhibition of CYP3A4): 4.79 | inhibition of CYP3A4 (CYP3A4): no inhibition | Cz ([3]; mice, 5 mg/kg sc): 109.0 ng/mL | tz ([3]; mice, 5 mg/kg sc): 24.0 h | Cz ([3]; mice, 10 mg/kg sc): 257.0 ng/mL | tz ([3]; mice, 10 mg/kg sc): 24.0 h | Plasma levels, subcutaneous vs intravenous ([3]; mice, 25 mg/kg sc vs 7.5 mg/kg iv): comparable to 7.5 mg/kg dehalogenil applied intravenously | Cz ([3]; mice, 25 mg/kg sc): 595 ng/mL | tz ([3]; mice, 25 mg/kg sc): 24.0 h | Dose response after subcutaneous application ([3]; mice, 5, 10 and 25 mg/kg sc): suitable dose response | AUC(0-t) ([3]; mice, 5 mg/kg sc): 2.69 µg·h/mL | Cmax ([3]; mice, 5 mg/kg sc): 0.125 µg/mL | Tmax ([3]; mice, 5 mg/kg sc): 7 h | AUC(0-t) ([3]; mice, 10 mg/kg sc): 8.09 µg·h/mL | Cmax ([3]; mice, 10 mg/kg sc): 0.488 µg/mL | Tmax ([3]; mice, 10 mg/kg sc): 3 h | AUC(0-t) ([3]; mice, 25 mg/kg sc): 18.5 µg·h/mL | Cmax ([3]; mice, 25 mg/kg sc): 1.2 µg/mL | Tmax ([3]; mice, 25 mg/kg sc): 3 h | reduction in bacterial loads in the tissues surrounding the catheter fragments (S. aureus; [4]): > 3 log10 and 3.24 log10 | reduction in bacterial loads on the catheter fragments (S. aureus; [4]): > 3 log10 and 3.85 log10 | bacterial load at the site of infection and on the implant (S. aureus; 6×25 mg/kg SC): significantly reducing bacterial loads

From patent US20260335277A1, “CHLOROTONIL DERIVATIVES” (priority 2023, published 2026)
